Measurements taken from patent publication US20060293295A1, “Pharmaceutical composition comprising progestogens and/or estrogens and 5-methyl- (6S)-tetrahydrofolate” (priority 2005, published 2006).
Like-named read-outs stand apart in the source and are kept apart here.

What was measured:
[1] = Compatibility investigation of binary mixtures with vitamin B12 by DSC; format: physicochemical; design: key to Compatibility: ++ good compatibility expected below the stated temperature; + compatibility below the stated temperature; ++/− indifferent compatibility, possibly good compatibility below the stated temperature; +/−− indifferent compatibility, appears to be compatible below the stated temperature; −(−−−) (strong) interaction, incompatible; −(−−−) (strong) interaction, incompatible; settings: for Compatibility: binary mixture with vitamin B12, DSC, various gases and temperatures, stated temperature is 60° C. where given; for Comments: binary mixture with vitamin B12, cells wrap, all except Drospirenone and Ethinylestradiol ('very O2-sensitive') continue 'moisture-sensitive'
Method: Both vitamin B12 and 5-methyl-(6S)-tetrahydrofolate are unstable in the presence of atmospheric oxygen and humidity. […] Measurements of the incompatibilities between the intended formulation ingredients were carried out by a thermoanalytical method (DSC, differential scanning calorimetry). This allows incompatibilities to be recognized through low enthalpies of fusion and melting temperatures. These are caused for example by a reduced proportion of crystalline substance and the increase in impurities. In the determination, binary mixtures of excipients or active ingredients in each case with vitamin B12 were investigated, and the compatibility was examined under the influence of various gases and temperatures. […]

[2] = Method: The investigated formulation was prepared (process 2) by mixing the ingredients, granulating with the part of the corn starch used as binder, absorbing the 5-methyl-(6S)-tetrahydrofolate after completion of the granulation process, renewed mixing and tableting. By comparison therewith, polyvinylpyrrolidone was added as binder instead of corn starch to the formulation by process 3.
The difference between process 1 and process 2 derives from the time at which the 5-methyl-(6S)-tetrahydrofolate was added during the preparation of the investigated tablet. In process 1, the 5-methyl-(6S)-tetrahydrofolate was present in the mixture even during the granulation, whereas in process 2 it was absorbed only after the granulation.

[3] = one month
Description: An oral formulation is normally prepared by granulation, tableting and film-coating.

[4] = 50 rpm, 37° C., 0.03 percent aqueous ascorbic acid solution
Method: For this purpose, the tablets were investigated in an in vitro dissolution test using a USP paddle apparatus at 50 rpm and 37° C. in a 0.03 percent aqueous ascorbic acid solution.

[5] = intake at the right time around conception; cited from earlier work
[6] = of Metafolin content per tablet immediately after preparation
[7] = per tablet, of specified content 100%, immediately after preparation, average
[8] = vials closed, listed as 5-methyl-(6S)-tetrahydrofolate

OC[C@H]1O[C@@H](O[C@H]2[C@H](O)[C@@H](O)C(O)O[C@@H]2CO)[C@H](O)[C@@H](O)[C@H]1O (stereo partly drawn) [Lactose]
Compatibility [1]: +
Comments [1]: O2-sensitive,

Magnesium stearate
Compatibility [1]: ++/−
Comments [1]: O2-sensitive,

CN1c2c(nc(N)[nH]c2=O)NC[C@@H]1CNc1ccc(C(=O)N[C@@H](CCC(=O)O)C(=O)O)cc1 [Metafolin]
Distribution coefficient, absorption (process 2) [2, 6]: 2.5
Distribution coefficient, granulation (process 1) [2, 6]: 6.1
Metafolin content granulation (process 1) ([2]; per tablet, immediately after preparation, average): 88.5%
Metafolin content absorption, PVP (process 3) [2, 7]: 90.5%
Metafolin content absorption, corn starch (process 2) [2, 7]: 96.1%
Metafolin content 25° C./60% rH absorption (process 2) ([3]; vials closed): 92.5%
Metafolin content 25° C./60% rH granulation (process 1) ([3]; vials closed): 74.5%
Metafolin content 40° C./75% rH absorption (process 2) ([3]; vials closed): 90.1%
Metafolin content 40° C./75% rH granulation (process 1) ([3]; vials closed): 58.9%
Metafolin content 40° C./75% rH absorption (process 2) [3, 8]: above 90%
Metafolin content 40° C./75% rH granulation (process 1) [3, 8]: ~60%
Metafolin content 25° C./60% rH absorption PVP (process 3) ([3]; vials open): 89.5%
Metafolin content 25° C./60% rH absorption corn starch (process 2) ([3]; vials open): 92.1%
Metafolin content 25° C./60% rH granulation (process 1) ([3]; vials open): 63.2%
Metafolin content 40° C./75% rH absorption PVP (process 3) ([3]; vials open): 37.7%
Metafolin content 40° C./75% rH absorption corn starch (process 2) ([3]; vials open): 67.7%
Metafolin content 40° C./75% rH granulation (process 1) ([3]; vials open): 43.4%
5-Methyl-(6S)-tetrahydrofolate process 1 dissolution [%] ([4]; 0 min): 0%
5-Methyl-(6S)-tetrahydrofolate process 2 dissolution [%] ([4]; 0 min): 0%
5-Methyl-(6S)-tetrahydrofolate process 1 dissolution [%] ([4]; 10 min): 59.2%
5-Methyl-(6S)-tetrahydrofolate process 2 dissolution [%] ([4]; 10 min): 81.4%
5-Methyl-(6S)-tetrahydrofolate process 1 dissolution [%] ([4]; 15 min): 66.8%
5-Methyl-(6S)-tetrahydrofolate process 2 dissolution [%] ([4]; 15 min): 89.3%
5-Methyl-(6S)-tetrahydrofolate process 1 dissolution [%] ([4]; 30 min): 73.1%
5-Methyl-(6S)-tetrahydrofolate process 2 dissolution [%] ([4]; 30 min): 91.3%
5-Methyl-(6S)-tetrahydrofolate process 1 dissolution [%] ([4]; 45 min): 76.7%
5-Methyl-(6S)-tetrahydrofolate process 2 dissolution [%] ([4]; 45 min): 91.1%
5-Methyl-(6S)-tetrahydrofolate process 1 dissolution [%] ([4]; 60 min): 75.8%
5-Methyl-(6S)-tetrahydrofolate process 2 dissolution [%] ([4]; 60 min): 91.2%

Nc1nc2ncc(CNc3ccc(C(=O)N[C@@H](CCC(=O)O)C(=O)O)cc3)nc2c(=O)[nH]1 [folic acid]
reduction of neural tube defects [5]: 50-70%

C[C@]12CCC(=O)C=C1[C@@H]1C[C@@H]1[C@H]1[C@@H]3[C@@H]4C[C@@H]4[C@@]4(CCC(=O)O4)[C@@]3(C)CC[C@@H]12 [Drospirenone]
Compatibility [1]: +
Comments [1]: O2-sensitive
